Measured values as given in US12139488B2, “Pyrido[3,2-d]pyrimidine compounds uses thereof for treating a proliferative disease” (Universite de Montreal, priority 2021, dated 2024).

Test system: pERK in HCT-116 cells (KRAS G13D)
Assay: Phospho-ERK inhibition (AlphaLISA SureFire Ultra p-ERK 1/2), HCT116
Format: cell-based, human
Description: All cancer cell lines (A375, A101D, A2058, RKO, HT29 SK-MEL 30, IPC298, HepG2, HCT-116, Lovo, SWV620, SW480, NCI-H358, NCI-H2122, Calu-6, NCIH2087, NCIH1755, NCIH1666 and Mewo) were obtained from ATCC and cultured in RPMI-1640 medium (Gibco) supplemented with 5% heat inactivated fetal bovine serum (FBS, Wisent) at 37° C. under 5% CO2. Cells were maintained in T175 flasks (Greiner). They were passaged by removing the culture medium, washing once in 10 mL of room temperature Phosphate Buffered Saline (PBS; Wisent) and incubating at 37° C. with 2 mL of 0.05% Trypsin (Thermo-Fisher). Trypsin was then inactivated by adding complete growth medium and the cells were then replated in a T175 culture dish at the appropriate dilution. All cell lines were routinely tested for mycoplasma contamination. Tissue type and mutational status of each cell line can be found in Table B.
AlphaLISA® SureFire® Ultra™ p-ERK 1/2 (Thr202/Tyr204) analysis was conducted on cells plated in 100 μL of complete RPMI-1640 growth medium in 96-well flat-bottomed transparent dishes (Costar) at a density indicated in Table C. Cells were maintained overnight at 37° C. under 5% CO2 before treatment with compounds' dilution series for one hour. The cell density in cells/cm^2 corresponds to cell number divided by the area of one well of a 96-well plate ([…]).
In a dilution series 100 μL/well of test substance dilution prepared in complete RPMI-1640 growth media was added to the cells. The dilution series is selected so that ten concentrations cover a range from 10 μM to 0.33 nM. If necessary the initial concentration of 10 μM is increased to 100 μM or lowered to 1 μM (as in the case of A375 and H1666 cells, which are generally more sensitive to the compounds) and further dilution is carried out accordingly. The final concentration of DMSO in the assay is set at 0.5%.
After treatment, media was removed and cells were lysed in 50 μL of 1× AlphaScreen Ultra Lysis Buffer (Perkin Elmer). The AlphaLISA® SureFire® Ultra™ p-ERK 1/2 (Thr202/Tyr2O4) (PerkinElmer) reactions were performed with 5 μL of cell lysate according to the manufacturer's specifications in 384-well proxyplates (Perkin Elmer) followed by overnight incubation of the reactions at room temperature in a humidified chamber. After completion of the reactions, the signals were recorded on an EnVision plate reader (Perkin Elmer) using built in AlphaLISA® settings.
The effect of each compound dilution on the pERK signal was expressed in % inhibition and calculated as follows. An internal 100% inhibition control ([…] trametinib, cat #HY-10999; MedChem Express; CAS #871700-17-3) was included in each plate and used as a measure of pERK background. First, the value obtained for trametinib was subtracted from each data point. The average of DMSO (vehicle) controls (set as 0% inhibition) was established and used to calculate % inhibition: % inhibition=100*(1-((pERK signalcompound)/(pERK signalDMSO)))
The ability of each compound to inhibit pERK signal was expressed as an IC50 value obtained by plotting the inhibition values for each data point of a dilution series and fitting the obtained curves using a log(agonist) versus response-variable slope (four parameters) function using GraphPadPrism (V7.0) or Dotmatics Screening Ultra platform.
When present, paradoxical pERK induction is inferred from the negative % inhibition values observed in the pERK IC50 curves of a compound.

[1] = HCT116 cells, class symbol before the bracket

Structure (SMILES)	IC50 (HCT116 cells, class symbol)	also measured
O=S(=O)(Nc1ccc(F)c(Nc2ncnc3ccc(-n4cc(CO)c5ccccc54)nc23)c1F)c1ccccc1Cl [Ex 88]	–	HCT116 pERK Ymin % (HCT116 cells, Ymin in brackets): −6%; IC50 [1]: 1000 to 10000 nM
O=S(=O)(Nc1ccc(F)c(Nc2ncnc3ccc(-n4cnc5c(CN6CCC6)cccc54)nc23)c1F)c1ccccc1Cl [Ex 218]	–	HCT116 pERK Ymin % (HCT116 cells, Ymin in brackets): −6%; IC50 [1]: 500 to 1000 nM
O=S(=O)(Nc1ccc(F)c(Nc2ncnc3ccc(-n4cnc5c(CN6CCOCC6)cccc54)nc23)c1F)c1ccccc1Cl [Ex 220]	–	HCT116 pERK Ymin % (HCT116 cells, Ymin in brackets): −1.7%; IC50 [1]: 500 to 1000 nM
CCN(C)Cc1cccc2c1ncn2-c1ccc2ncnc(Nc3c(F)ccc(NS(=O)(=O)c4ccccc4Cl)c3F)c2n1 [Ex 221]	–	HCT116 pERK Ymin % (HCT116 cells, Ymin in brackets): −5%; IC50 [1]: 500 to 1000 nM
O=S(=O)(Nc1ccc(F)c(Nc2ncnc3ccc(-n4cnc5c(CN6CCCCC6)cccc54)nc23)c1F)c1ccccc1Cl [Ex 228]	–	HCT116 pERK Ymin % (HCT116 cells, Ymin in brackets): 2.0%; IC50 [1]: 500 to 1000 nM
O=S(=O)(Nc1ccc(F)c(Nc2ncnc3ccc(-n4cnc5c(CN6CCNCC6)cccc54)nc23)c1F)c1ccccc1Cl [Ex 230]	–	HCT116 pERK Ymin % (HCT116 cells, Ymin in brackets): −3%; IC50 [1]: 1000 to 10000 nM
O=S(=O)(Nc1ccc(F)c(Nc2ncnc3ccc(-n4cc(S(=O)(=O)N5CCN(c6ccccn6)CC5)c5ccccc54)nc23)c1F)c1cccc(Cl)c1Cl [Ex 377]	500 to 1000 nM	–
Cc1c(F)cccc1S(=O)(=O)Nc1ccc(F)c(Nc2ncnc3ccc(-n4cnc(CO)c4)nc23)c1F [Ex 379]	1000 to 10000 nM	–
O=S(=O)(Nc1ccc(F)c(Nc2ncnc3ccc(-n4cc(S(=O)(=O)N5CCN(C6CCCCC6)CC5)c5ccccc54)nc23)c1F)c1cccc(Cl)c1Cl [Ex 380]	1000 to 10000 nM	–
CS(=O)(=O)c1cn(-c2ccc3ncnc(Nc4c(F)ccc(NS(=O)(=O)c5cccc(Cl)c5Cl)c4F)c3n2)c2ccccc12 [Ex 381]	< 500 nM	–
CCN1CCN(S(=O)(=O)c2cn(-c3ccc4ncnc(Nc5c(F)ccc(NS(=O)(=O)c6cccc(Cl)c6Cl)c5F)c4n3)c3ccccc23)CC1 [Ex 388]	< 500 nM	–
O=S(=O)(Nc1ccc(F)c(Nc2ncnc3ccc(-n4cc(S(=O)(=O)N5CCN(CCO)CC5)c5ccccc54)nc23)c1F)c1cccc(Cl)c1Cl [Ex 389]	< 500 nM	–
Cc1c(F)cccc1S(=O)(=O)Nc1ccc(F)c(Nc2ncnc3ccc(-n4cc(S(=O)(=O)N5CCN(CCO)CC5)c5ccccc54)nc23)c1F [Ex 397]	< 500 nM	–
O=S(=O)(CC1CCCO1)c1cn(-c2ccc3ncnc(Nc4c(F)ccc(NS(=O)(=O)c5cccc(Cl)c5Cl)c4F)c3n2)c2ccccc12 (stereo not shown) [Ex 441]	500 to 1000 nM	–
O=S(=O)(CC1CCOCC1)c1cn(-c2ccc3ncnc(Nc4c(F)ccc(NS(=O)(=O)c5cccc(Cl)c5Cl)c4F)c3n2)c2ccccc12 [Ex 442]	< 500 nM	–
O=S(=O)(Nc1ccc(F)c(Nc2ncnc3ccc(-n4cc(S(=O)(=O)N5CC6COCC6C5)c5ccccc54)nc23)c1F)c1cccc(Cl)c1Cl (stereo not shown) [Ex 451]	< 500 nM	–
O=S(=O)(Nc1ccc(F)c(Nc2ncnc3ccc(-n4cc(S(=O)(=O)N5CC(O)C5)c5ccccc54)nc23)c1F)c1cccc(Cl)c1Cl [Ex 455]	< 500 nM	–
O=S(=O)(Nc1ccc(F)c(Nc2ncnc3ccc(-n4cnc5c4CCCC5)nc23)c1F)c1cccc(Cl)c1Cl [Ex 463]	500 to 1000 nM	–
CCC(=O)c1cn(-c2ccc3ncnc(Nc4c(F)ccc(NS(=O)(=O)c5cccc(Cl)c5Cl)c4F)c3n2)c2ccccc12 [Ex 471]	1000 to 10000 nM	–
O=S(=O)(Nc1ccc(F)c(Nc2ncnc3ccc(-n4cnc5c(CN6CC(F)C6)cccc54)nc23)c1F)c1ccccc1Cl [Example 227]	–	HCT116 pERK Ymin % (HCT116 cells, Ymin in brackets): −1.9%; IC50 [1]: 500 to 1000 nM
CC(c1cccc2c1ncn2-c1ccc2ncnc(Nc3c(F)ccc(NS(=O)(=O)c4ccccc4Cl)c3F)c2n1)N1CCOCC1 (stereo not shown) [Example 237]	–	HCT116 pERK Ymin % (HCT116 cells, Ymin in brackets): 2.8%; IC50 [1]: 500 to 1000 nM
Cc1c(Cl)cccc1S(=O)(=O)Nc1cccc(Nc2ncnc3ccc(-n4nc(C(=O)N5CCOCC5)c5ccccc54)nc23)c1F [Example 241]	–	IC50 (HCT116 cells, Table 5): 1000 to 10000 nM; HCT116 pERK Ymin % (lowest value of the curve, HCT116, Table 5): −0.9%
CCCNc1cccc2c1ncn2-c1ccc2ncnc(Nc3c(F)ccc(NS(=O)(=O)c4cccc(Cl)c4Cl)c3F)c2n1 [Example 242]	–	HCT116 pERK Ymin % (HCT116 cells, Ymin in brackets): −7.4%; IC50 [1]: 1000 to 10000 nM
Cc1c(F)cccc1S(=O)(=O)Nc1ccc(F)c(Nc2ncnc3ccc(-n4cnc5c(C#N)cccc54)nc23)c1F [Example 329]	1000 to 10000 nM	–
Cc1c(F)cccc1S(=O)(=O)Nc1ccc(F)c(Nc2ncnc3ccc(-n4ncc5c4CN(CCO)CC5)nc23)c1F [Example 339]	< 500 nM	–
Cc1c(F)cccc1S(=O)(=O)Nc1ccc(F)c(Nc2ncnc3ccc(-n4cc5c(n4)CCCN5CCO)nc23)c1F [Example 340]	< 500 nM	–
Cc1c(F)cccc1S(=O)(=O)Nc1ccc(F)c(Nc2ncnc3ccc(-n4cnc5c(NCCO)cccc54)nc23)c1F [Example 350]	< 500 nM	–
Cc1c(F)cccc1S(=O)(=O)Nc1ccc(F)c(Nc2ncnc3ccc(-n4cnc5c(N(CCO)CCO)cccc54)nc23)c1F [Example 351]	< 500 nM	–
Cc1c(F)cccc1S(=O)(=O)Nc1ccc(F)c(Nc2ncnc3ccc(-n4cc5c(n4)CCCN5C)nc23)c1F [Example 356]	< 500 nM	–

Continued, in another order:

IC50 (HCT116 cells, class symbol)	Structure (SMILES)	also measured
1000 to 10000 nM	Cc1cc([N+](=O)[O-])ccc1S(=O)(=O)Nc1ccc(F)c(Nc2ncnc3ccc(-n4cnc5c(N)cccc54)nc23)c1F [Ex 368]	–
< 500 nM	CN(CCc1ccccn1)C(=O)c1nn(-c2ccc3ncnc(Nc4c(F)ccc(NS(=O)(=O)c5cccc(Cl)c5Cl)c4F)c3n2)c2ccccc12 [Ex 370]	–
< 500 nM	O=S(=O)(Nc1ccc(F)c(Nc2ncnc3ccc(-n4cc(S(=O)(=O)N5CCN(CCOCCO)CC5)c5ccccc54)nc23)c1F)c1cccc(Cl)c1Cl [Ex 378]	–
< 500 nM	CN(C)C1CCN(S(=O)(=O)c2cn(-c3ccc4ncnc(Nc5c(F)ccc(NS(=O)(=O)c6cccc(Cl)c6Cl)c5F)c4n3)c3ccccc23)CC1 [Ex 387]	–
< 500 nM	Cc1c(F)cccc1S(=O)(=O)Nc1ccc(F)c(Nc2ncnc3ccc(-n4cc(S(=O)(=O)N5CCC(N(C)C)CC5)c5ccccc54)nc23)c1F [Ex 395]	–
< 500 nM	CCN1CCN(S(=O)(=O)c2cn(-c3ccc4ncnc(Nc5c(F)ccc(NS(=O)(=O)c6cccc(F)c6C)c5F)c4n3)c3ccccc23)CC1 [Ex 396]	–
< 500 nM	CN1CCCN(S(=O)(=O)c2cn(-c3ccc4ncnc(Nc5c(F)ccc(NS(=O)(=O)c6cccc(Cl)c6Cl)c5F)c4n3)c3ccccc23)CC1 [Ex 436]	–
< 500 nM	COc1cccc2c1ncn2-c1ccc2ncnc(Nc3c(F)ccc(NS(=O)(=O)c4cccc(Cl)c4Cl)c3F)c2n1 [Ex 449]	–
< 500 nM	CC(C)(O)CCNS(=O)(=O)c1cn(-c2ccc3ncnc(Nc4c(F)ccc(NS(=O)(=O)c5cccc(Cl)c5Cl)c4F)c3n2)c2ccccc12 [Ex 453]	–
< 500 nM	CC1(O)CCN(S(=O)(=O)c2cn(-c3ccc4ncnc(Nc5c(F)ccc(NS(=O)(=O)c6cccc(Cl)c6Cl)c5F)c4n3)c3ccccc23)CC1 [Ex 458]	–
< 500 nM	C[C@@H]1CN(C)C[C@H](C)N1S(=O)(=O)c1cn(-c2ccc3ncnc(Nc4c(F)ccc(NS(=O)(=O)c5cccc(Cl)c5Cl)c4F)c3n2)c2ccccc12 [Ex 459]	–
< 500 nM	O=S(=O)(Nc1ccc(F)c(Nc2ncnc3ccc(-n4cnc5c(Cl)cccc54)nc23)c1F)c1cccc(Cl)c1Cl [Ex 462]	–
1000 to 10000 nM	CC(=O)c1cn(-c2ccc3ncnc(Nc4c(F)ccc(NS(=O)(=O)c5cccc(Cl)c5Cl)c4F)c3n2)c2ccccc12 [Ex 464]	–
< 500 nM	Cc1c(F)cccc1S(=O)(=O)Nc1ccc(F)c(Nc2ncnc3ccc(-n4ccc(C(=O)N(C)Cc5ccncc5)n4)nc23)c1F [Example 334]	–
< 500 nM	Cc1c(F)cccc1S(=O)(=O)Nc1ccc(F)c(Nc2ncnc3ccc(-n4cnc(CCC#N)c4)nc23)c1F [Example 347]	–
< 500 nM	Nc1nccc2c1ncn2-c1ccc2ncnc(Nc3c(F)ccc(NS(=O)(=O)c4cccc(Cl)c4Cl)c3F)c2n1 [Example 348]	–
